Test results as given in patent US20240269293A1, “PROTEIN-MACROMOLECULE CONJUGATES AND METHODS OF USE THEREOF” (BEIJING XUANYI PHARMASCIENCES CO., LTD., priority 2021, published 2024).
Like-named read-outs stand apart in the source and are kept apart here.

Key:
[1] = tested on: metastatic melanoma and renal cell carcinoma; settings: high-dose regimen administered every eight hours; cited from earlier work
CTLL-2 cells = assay: CTLL-2 cell proliferation assay; type: cell-based, mouse
Protocol: CTLL-2 cells (mouse cytotoxic T lymphocyte cell line) were maintained in complete RPMI 1640 medium supplemented with 10% fetal bovine serum, and 10% IL-2 culture supplement (T-STIM™ with ConA (concanavalin-A)) at 37° C. under a 5% CO2 atmosphere. The cells were cultured in suspension until they reach a cell density of 2-3×10^5 cells/ml before splitting.
For the activity assay, 3-4 days after the last split, the cells were washed three times in Dulbecco's phosphate buffered saline. The cells were then re-suspended in supplemented media without T-STIM™ at a cell density of ˜5×10^5 cells/mL, and plated in 96-well white walled clear bottom microplates at 90 μl/well. Experiments were also conducted using supplemented media (without T-STIM™) adjusted to pH 6.7-7, in order to minimize the release of conjugates during the course of incubation. Then, 10 μl of 10× concentrations of test compound, diluted in supplemented media without T-STIM™, was added. The cells were incubated at 37° C. in a 5% CO2 atmosphere for 48 hours.
The activity of both released IL-2 and unreleased conjugates were tested. The test compounds were stored under acidic condition (10 mM, sodium acetate buffer, pH 4) to stabilize conjugation. To test the activity of conjugates, the sample was diluted from the storage buffer into supplemented media ˜ one hour prior to the assay. […]

CD8+ T cells = assay: pSTAT5 signaling in human LRS-derived PBMC, CD8+ T cells (flow cytometry); type: cell-based; settings: for pSTAT5 EC50, CD8+ T cells: 45 minute incubation
Protocol: (§1) To determine how test compounds affect activation of primary immune cell subpopulations, concentration-response profiling of lymphocyte activation in human LRS-derived peripheral blood mononuclear cell (PBMC) samples were performed using multi-color flow cytometry.
(§2) An LRS was acquired day of draw and PBMC was extracted using a ficoll density gradient protocol. PBMC was resuspended in RPMI supplemented with 10% Fetal Bovine Serum and 1% Pen-Strep Glutamine. PBMC was incubated at 37° C. for 30 minutes prior to stimulation.
(§3) A 12-point dose curve with 5-fold dilutions was created for all compounds. Top dose was 30 ug mL. Dose curves were diluted in PBS w/0.1% BSA and added as 10× stocks. After a 45 minute incubation, samples were fixed and stained with antibodies to detect the phosphorylated form of the transcription factor STAT5 (pTATA5), and a panel of surface markers to follow pSTAT5 formation in specific T Cell and natural killer (NK) cell subpopulation.
(§4) Samples were stained with the following pre-perm panel: CD3, CD25, CD8, CD56, CD16, CD4, Dump (CD14), Dump (CD19), and CD127. Stains were incubated for 30 minutes then washed out. Streptavidin BV421 (Biolegend cat #405225) was then added and incubated for 20 minutes. Streptavidin was washed out and samples were MeOH permed and stained with the following post-perm panel: FOXP3. STAT5, Dump (CD15). Stains were incubated for 60 minutes then washed out and analyzed by flow cytometry.
(§5) Flow cytometry data were analyzed for activation of different T and NK cell subsets in concentration-response mode, reading pSTAT5 accumulation after treatment with test compounds. The median fluorescence intensity for pSTAT5 was used to create the dose curves. EC50 values for NK cells, Treg cells, CD8+ T cells were calculated from the concentration-response curves.

NK cells = assay: pSTAT5 signaling in human LRS-derived PBMC, NK cells (flow cytometry); type: cell-based; settings: 45 minute incubation
Protocol: as §1, §2, §3, §4, §5

Treg cells = assay: pSTAT5 signaling in human LRS-derived PBMC, Treg cells (flow cytometry); type: cell-based; settings: 45 minute incubation
Protocol: as §1, §2, §3, §4, §5

[2] = tested on: CT26 murine colon carcinoma; type: in vivo
Protocol: 5×10^5 CT26 cells in 0.1 ml of PBS were implanted subcutaneously for each 7-10 weeks old syngeneic female BALB/c mouse in the right front flank region. Tumors were allowed to grow to palpable size, i.e., 80-110 cu mm before randomization and assigning groups (n=8) as designed. The mice were administered test compounds i.e., rIL-2, rIL-2-polymer conjugates of vehicle at different dose concentrations and dose regimes as indicated in Tables 6-8. The body weights and tumor volumes were measured three times per week. Mice that have been tumor free for more than 30 days were re-challenged in the left front flank with CT26 tumor cells (5×10^5) in 0.1 mal of PBS.
Tumor growth inhibition following the administration of rIL-2 and rIL-2-polymer conjugates at different administration schemes were provided in FIGS. 5A-7B. The tumor growth inhibition (TGI) for different treatment groups, complete response (CR) rate, toxicity and rechallenge results were shown in Tables 9-11. Tumor Growth Inhibition; TGI %=(1−ΔT/ΔC)×100; Ti and Ci as the mean tumor volumes of the treatment and vehicle groups on the measurement day; T0 and C0 as the mean tumor volumes of the treatment and vehicle groups on Day 0.

[3] = tested on: MC38 murine colon carcinoma; assay: Subcutaneous MC38 murine colon carcinoma syngeneic model; type: in vivo, C57BL/6 mouse; settings: 2 mg/kg IP b.i.d. × 5, 2 cycles
Protocol: 1×10^6 MC38 cells in 0.1 ml of PBS were implanted subcutaneously for each 7-10 weeks old syngeneic female C57BL/6 mouse in the right front flank region. Tumors were allowed to grow to palpable size, i.e., 80-100 cu mm before randomization and assigning groups (n=3) as designed. The mice were administered test compounds i.e., IL-2, rIL-2-polymer conjugates of vehicle at different dose concentrations and dose regimes as indicated in Table 12. The body weights and tumor volumes were measured three times per week.
Tumor growth inhibition following the administration of rIL-2 and rIL-2-polymer conjugates at different administration schemes were provided in FIG. 8. The tumor growth inhibition (TGI) for different treatment groups, complete response (CR) rate, and toxicity were shown in Table 13. Tumor Growth Inhibition; TGI %=(1−ΔT/ΔC)×100; Ti and Ci as the mean tumor volumes of the treatment and vehicle groups on the measurement day; T0 and C0 as the mean tumor volumes of the treatment and vehicle groups on Day 0.

[4] = Table 9, 2 mg/kg IP b.i.d. × 5, 2 cycles
[5] = Table 11, 2 mg/kg IP b.i.d. × 5, 2 cycles

aldesleukin
Durable responses [1]: up to 25%

Example 24: recombinant IL-2 of SEQ ID NO:1 expressed in E. coli, used as control
EC50 (CTLL-2 cells; Table 3A, 48 hour incubation, CCK8): 1.03 pM
EC50, CTLL-2 cell proliferation (CTLL-2 cells; Table 3B, unreleased conjugate (rIL-2 control as such)): 0.78 ng/mL
CD8/Treg ratio (pSTAT5 EC50) (CD8+ T cells; Run 1): 928
pSTAT5 EC50, CD8+ T cells (CD8+ T cells; Run 1): 37.10 ng/mL
CD8/Treg ratio (pSTAT5 EC50) (CD8+ T cells; Run 2): 302
pSTAT5 EC50, CD8+ T cells (CD8+ T cells; Run 2): 78.50 ng/mL
CD8/Treg ratio (pSTAT5 EC50) (CD8+ T cells; Run 3): 1874
pSTAT5 EC50, CD8+ T cells (CD8+ T cells; Run 3): 37.48 ng/mL
pSTAT5 EC50, NK cells (NK cells; Run 1): 9.34 ng/mL
pSTAT5 EC50, NK cells (NK cells; Run 2): 22.02 ng/mL
pSTAT5 EC50, NK cells (NK cells; Run 3): 4.01 ng/mL
pSTAT5 EC50, Treg cells (Treg cells; Run 1): 0.04 ng/mL
pSTAT5 EC50, Treg cells (Treg cells; Run 2): 0.26 ng/mL
pSTAT5 EC50, Treg cells (Treg cells; Run 3): 0.02 ng/mL
TGI (day 19) ([2]; Table 9 (FIGS. 5A-5B), 2 mg/kg IP b.i.d. × 5, 2 cycles): 61.76%
CR (tumor free mice/mice treated) [2, 4]: 1/8
Re-challenge (final tumor free mice/re-challenged mice) [2, 4]: 1/1
TGI (day 3) ([2]; Table 10 (FIGS. 6A-6B), 3 mg/kg (first cycle) IP, 2 mg/kg (second cycle) IV, b.i.d. × 5, 2 cycles): 95.71% (day 3)
CR (tumor free mice/mice treated) ([2]; Table 10, 3, 2 mg/kg b.i.d. × 5, 2 cycles): 0/8
TGI (day 17) ([2]; Table 11 (FIGS. 7A-7B), 2 mg/kg IP b.i.d. × 5, 2 cycles): 102.41%
CR (tumor free mice/mice treated) [2, 5]: 1/8
Re-challenge (final tumor free mice/re-challenged mice) [2, 5]: 1/1
TGI (day 15) ([3]; Table 13 (FIG. 8)): 100.75%
CR (day 38) (tumor free mice/mice treated) ([3]; Table 13): 1/8
